According to ChEMBL document CHEMBL1201862, “PubChem BioAssay data set” (2004):
Values joined by “and” are separate entries in the source; they are usually repeats but may differ in a detail not shown here. Identical values can stand only once.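 All cell lines were grown in 96-well plates and treated with compound for 48 hours. GI50 marks 50% less growth.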 Active and inactive are the calls of the source. Cut-off read from the data, not from the text of the source: active = GI50 up to about 1.1 µM and inactive = higher.

Key:
Assay in all cases: DTP human tumour cell line panel, 48 h
TK-10 = tested on: TK-10
OVCAR-4 = tested on: OVCAR-4
MDA-MB-435 = tested on: MDA-MB-435
RPMI-8226 = tested on: RPMI-8226
SNB-19 = tested on: SNB-19
OVCAR-8 = tested on: OVCAR-8
U-251 = tested on: U-251
NCI-H522 = tested on: NCI-H522
CAKI-1 = tested on: CAKI-1
OVCAR-3 = tested on: OVCAR-3
ACHN = tested on: ACHN
RXF 393 = tested on: RXF 393
Hs-578T = tested on: Hs-578T
MCF7 = tested on: MCF7
UACC-257 = tested on: UACC-257
Malme-3M = tested on: Malme-3M
HOP-62 = tested on: HOP-62
SR = tested on: SR
A549 = tested on: A549
786-0 = tested on: 786-0
SK-MEL-5 = tested on: SK-MEL-5
K562 = tested on: K562
COLO 205 = tested on: COLO 205
M14 = tested on: M14
SF-539 = tested on: SF-539
DU-145 = tested on: DU-145
SF-295 = tested on: SF-295
NCI-H226 = tested on: NCI-H226
A498 = tested on: A498
HOP-92 = tested on: HOP-92
HCT-15 = tested on: HCT-15
NCI/ADR-RES = tested on: NCI/ADR-RES
SNB-75 = tested on: SNB-75
SK-MEL-28 = tested on: SK-MEL-28
HCC 2998 = tested on: HCC 2998
MDA-MB-231 = tested on: MDA-MB-231
CCRF-CEM = tested on: CCRF-CEM
SF-268 = tested on: SF-268
NCI-H23 = tested on: NCI-H23
UACC-62 = tested on: UACC-62
LOX IMVI = tested on: LOX IMVI
OVCAR-5 = tested on: OVCAR-5
HT-29 = tested on: HT-29
SW-620 = tested on: SW-620
SK-OV-3 = tested on: SK-OV-3
PC-3 = tested on: PC-3
MDA-N = tested on: MDA-N
EKVX = tested on: EKVX
NCI-H460 = tested on: NCI-H460
T47D = tested on: T47D
KM12 = tested on: KM12
UO-31 = tested on: UO-31
SK-MEL-2 = tested on: SK-MEL-2
IGROV-1 = tested on: IGROV-1
MOLT-4 = tested on: MOLT-4
HCT-116 = tested on: HCT-116
HL-60 = tested on: HL-60
SN12C = tested on: SN12C

With `O=[N+]([O-])c1ccc(OC2CC3C4C=CC3C2C4)c([N+](=O)[O-])c1` (stereo not drawn) the GI50 (TK-10) was > 31.6 µM (inactive) and 33.7 µM (inactive), the GI50 (OVCAR-4) was 22.8 µM (inactive) and > 31.6 µM (inactive) and the GI50 (MDA-MB-435) was > 31.6 µM (inactive) and 24.3 µM (inactive). The GI50 (RPMI-8226) was 0.0465 µM (active), the GI50 (SNB-19) was 32.3 µM (inactive) and > 31.6 µM (inactive) and the GI50 (OVCAR-8) was 39.2 µM (inactive) and > 31.6 µM (inactive). The GI50 (U-251) was 37.6 µM (inactive) and > 31.6 µM (inactive), the GI50 (NCI-H522) was 43.6 µM (inactive) and > 31.6 µM (inactive) and the GI50 (CAKI-1) was 29.2 µM (inactive) and > 31.6 µM (inactive). The GI50 (OVCAR-3) was 43.5 µM (inactive) and 29.4 µM (inactive), the GI50 (ACHN) was 37.4 µM (inactive) and > 31.6 µM (inactive) and the GI50 (RXF 393) was 42.6 µM (inactive) and > 31.6 µM (inactive). The GI50 (Hs-578T) was 33.7 µM (inactive) and > 31.6 µM (inactive), the GI50 (MCF7) was > 100 µM (inactive) and 61.4 µM (inactive) and the GI50 (UACC-257) was 20.9 µM (inactive) and > 31.6 µM (inactive). For the same molecule, the GI50 (Malme-3M) was 31.4 µM (inactive) and 34.8 µM (inactive), the GI50 (HOP-62) was 45 µM (inactive) and > 31.6 µM (inactive) and the GI50 (SR) was > 10 µM (inactive). The GI50 (A549) was 31 µM (inactive) and 33.3 µM (inactive), the GI50 (786-0) was 24.6 µM (inactive) and > 31.6 µM (inactive) and the GI50 (SK-MEL-5) was 39.8 µM (inactive) and 21 µM (inactive). The GI50 (K562) was 30.8 µM (inactive) and > 31.6 µM (inactive), the GI50 (COLO 205) was 54 µM (inactive) and > 31.6 µM (inactive) and the GI50 (M14) was 21.6 µM (inactive) and > 31.6 µM (inactive). For the same molecule, the GI50 (SF-539) was > 31.6 µM (inactive) and 26.3 µM (inactive), the GI50 (DU-145) was 45.8 µM (inactive) and > 31.6 µM (inactive) and the GI50 (SF-295) was 16.5 µM (inactive) and > 31.6 µM (inactive). The GI50 (NCI-H226) was > 31.6 µM (inactive) and 42 µM (inactive).

With `CN1C(=O)CC2CCCN2C1=O` (stereo not drawn) the GI50 (A498) was > 100 µM (inactive), the GI50 (TK-10) was > 100 µM (inactive) and the GI50 (OVCAR-4) was > 100 µM (inactive). For the same molecule, the GI50 (MDA-MB-435) was > 100 µM (inactive), the GI50 (HOP-92) was 86.9 µM (inactive) and the GI50 (HCT-15) was greater than 100 µM. The GI50 (NCI/ADR-RES) was > 100 µM (inactive), the GI50 (RPMI-8226) was > 100 µM (inactive) and the GI50 (SNB-19) was > 100 µM (inactive). For the same molecule, the GI50 (SNB-75) was > 100 µM (inactive), the GI50 (OVCAR-8) was > 100 µM (inactive) and the GI50 (SK-MEL-28) was 5.09 µM (inactive). For the same molecule, the GI50 (HCC 2998) was > 100 µM (inactive), the GI50 (MDA-MB-231) was > 100 µM (inactive) and the GI50 (U-251) was > 100 µM (inactive). The GI50 (NCI-H522) was > 100 µM (inactive), the GI50 (CAKI-1) was > 100 µM (inactive) and the GI50 (CCRF-CEM) was 4.27 µM (inactive). The GI50 (SF-268) was > 100 µM (inactive), the GI50 (NCI-H23) was > 100 µM (inactive) and the GI50 (OVCAR-3) was > 100 µM (inactive). For the same molecule, the GI50 (ACHN) was > 100 µM (inactive), the GI50 (RXF 393) was > 100 µM (inactive) and the GI50 (UACC-62) was > 100 µM (inactive). The GI50 (Hs-578T) was > 100 µM (inactive), the GI50 (LOX IMVI) was > 100 µM (inactive) and the GI50 (MCF7) was > 100 µM (inactive). For the same molecule, the GI50 (UACC-257) was > 100 µM (inactive), the GI50 (Malme-3M) was > 100 µM (inactive) and the GI50 (OVCAR-5) was > 100 µM (inactive). The GI50 (HOP-62) was > 100 µM (inactive), the GI50 (SR) was > 100 µM (inactive) and the GI50 (HT-29) was > 100 µM (inactive). For the same molecule, the GI50 (A549) was > 100 µM (inactive), the GI50 (786-0) was > 100 µM (inactive) and the GI50 (SW-620) was > 100 µM (inactive). For the same molecule, the GI50 (SK-MEL-5) was > 100 µM (inactive), the GI50 (K562) was > 100 µM (inactive) and the GI50 (SK-OV-3) was > 100 µM (inactive). For the same molecule, the GI50 (PC-3) was > 100 µM (inactive), the GI50 (COLO 205) was > 100 µM (inactive) and the GI50 (MDA-N) was > 100 µM (inactive). The GI50 (EKVX) was > 100 µM (inactive), the GI50 (NCI-H460) was > 100 µM (inactive) and the GI50 (T47D) was > 100 µM (inactive). The GI50 (M14) was > 100 µM (inactive), the GI50 (SF-539) was > 100 µM (inactive) and the GI50 (KM12) was > 100 µM (inactive). For the same molecule, the GI50 (DU-145) was > 100 µM (inactive), the GI50 (SF-295) was > 100 µM (inactive) and the GI50 (UO-31) was > 100 µM (inactive). For the same molecule, the GI50 (NCI-H226) was > 100 µM (inactive), the GI50 (SK-MEL-2) was > 100 µM (inactive) and the GI50 (IGROV-1) was > 100 µM (inactive). The GI50 (MOLT-4) was > 100 µM (inactive).

In the case of `Cn1c(SCc2ccc(F)cc2)nnc1C12CC3CC(CC(C3)C1)C2`, the GI50 (A498) is reported as 11 µM (inactive), the GI50 (OVCAR-4) is reported as 35.2 µM (inactive) and the GI50 (MDA-MB-435) is reported as 22.5 µM (inactive). The GI50 (HOP-92) was 25 µM (inactive), the GI50 (HCT-15) was 26.4 µM and the GI50 (NCI/ADR-RES) was 28.9 µM (inactive). The GI50 (RPMI-8226) was 20.1 µM (inactive), the GI50 (SNB-19) was 53.5 µM (inactive) and the GI50 (SNB-75) was 37.8 µM (inactive). The GI50 (OVCAR-8) was 31.8 µM (inactive), the GI50 (HCT-116) was 23.3 µM (inactive) and the GI50 (SK-MEL-28) was 24.3 µM (inactive). The GI50 (HCC 2998) was 39.2 µM (inactive), the GI50 (MDA-MB-231) was 20.1 µM (inactive) and the GI50 (U-251) was 35.2 µM (inactive). For the same molecule, the GI50 (NCI-H522) was 36.9 µM (inactive), the GI50 (CAKI-1) was > 100 µM (inactive) and the GI50 (CCRF-CEM) was 17.1 µM (inactive). The GI50 (SF-268) was 40.4 µM (inactive), the GI50 (NCI-H23) was 50.6 µM (inactive) and the GI50 (OVCAR-3) was 29.4 µM (inactive). For the same molecule, the GI50 (ACHN) was 33.5 µM (inactive), the GI50 (HL-60) was 11.1 µM (inactive) and the GI50 (RXF 393) was 27.8 µM (inactive). For the same molecule, the GI50 (UACC-62) was 27.1 µM (inactive), the GI50 (Hs-578T) was 34.8 µM (inactive) and the GI50 (LOX IMVI) was 22.2 µM (inactive). For the same molecule, the GI50 (UACC-257) was 33.2 µM (inactive), the GI50 (Malme-3M) was 19.5 µM (inactive) and the GI50 (OVCAR-5) was 63.2 µM (inactive). For the same molecule, the GI50 (HOP-62) was 47.3 µM (inactive), the GI50 (SR) was 24.2 µM (inactive) and the GI50 (HT-29) was 16.1 µM (inactive). For the same molecule, the GI50 (A549) was 36.6 µM (inactive), the GI50 (786-0) was 35.8 µM (inactive) and the GI50 (SW-620) was 58.7 µM (inactive). The GI50 (SK-MEL-5) was 11.9 µM (inactive), the GI50 (K562) was 24.2 µM (inactive) and the GI50 (SK-OV-3) was 52.1 µM (inactive). For the same molecule, the GI50 (PC-3) was 28.8 µM (inactive), the GI50 (COLO 205) was 17 µM (inactive) and the GI50 (MDA-N) was 38.5 µM (inactive). The GI50 (EKVX) was 37.1 µM (inactive), the GI50 (NCI-H460) was 40 µM (inactive) and the GI50 (T47D) was 56.9 µM (inactive). For the same molecule, the GI50 (M14) was 24.2 µM (inactive), the GI50 (SF-539) was 24.5 µM (inactive) and the GI50 (SN12C) was 43.2 µM (inactive). For the same molecule, the GI50 (DU-145) was 52 µM (inactive), the GI50 (SF-295) was 50.8 µM (inactive) and the GI50 (UO-31) was 34.4 µM (inactive). For the same molecule, the GI50 (NCI-H226) was 33.5 µM (inactive), the GI50 (SK-MEL-2) was 40.6 µM (inactive) and the GI50 (IGROV-1) was 12.7 µM (inactive). The GI50 (MOLT-4) was 13.6 µM (inactive).
